Test systems include HOP-92; SN12C; RPMI-8226; HCT-15; HCT-116; UACC-257; OVCAR-4; UO-31; M14; SF-268; IGROV-1; OVCAR-8; SK-MEL-28; HOP-62; SR.
Common to all, as to assay: growth of human tumour cells (NCI), 48 h

SMILES strings stand for the structures.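 Cells were grown in 96-well plates and exposed to each compound for 48 hours at five concentrations; endpoints were interpolated linearly between bracketing concentrations, or set to the highest concentration if not reached. Abbreviation: GI50, concentration required for 50% inhibition of growth.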 Activity calls are given as the source filed them. Cut-off read from the data, not from the text of the source: active = GI50 up to about 1.1 µM and inactive = higher.

For the compound `NC(=S)N/N=C1\C(=O)N(CCc2ccccc2)C(=O)C1C(=O)NCCc1ccccc1` (stereo not given), the GI50 with HOP-92 was > 100 µM (inactive); in the assay on SN12C, > 100 µM (inactive); in the assay on RPMI-8226, > 100 µM (inactive); in the assay with HCT-15, over 100 µM; in the assay on HCT-116, > 100 µM (inactive); in the assay on UACC-257, > 100 µM (inactive). Also, the GI50 in the assay on OVCAR-4, in the assay on UO-31, in the assay on M14, in the assay on SF-268, in the assay with IGROV-1 and in the assay with OVCAR-8 was > 100 µM (inactive) in each case. Besides, the GI50 in the assay on SK-MEL-28 and with HOP-62 was > 100 µM (inactive) in each case.

As to `COC(=O)c1c(N)n[nH]c1N`, the GI50 in the assay with HOP-92, with SN12C, with RPMI-8226, in the assay with SR, with HCT-116 and in the assay with UACC-257 was > 100 µM (inactive) in each case. For the same compound, the GI50 in the assay with OVCAR-4, with UO-31, with M14, in the assay on SF-268, with IGROV-1 and in the assay on OVCAR-8 was > 100 µM (inactive) in each case. The GI50 with SK-MEL-28 and in the assay on HOP-62 was > 100 µM (inactive) throughout.

Consider `Cc1ccc(/C=C2\CCCCC2=O)cc1`, for which the GI50 is 97.5 µM (inactive) with SN12C; over 100 µM in the assay on HCT-15; 43.4 µM (inactive) with HCT-116; 33.6 µM (inactive) with OVCAR-4; 78.9 µM (inactive) in the assay on UO-31; 49.9 µM (inactive) in the assay on M14. The GI50 with SF-268, in the assay with IGROV-1, in the assay on OVCAR-8, in the assay with SK-MEL-28 and in the assay with HOP-62 was > 100 µM (inactive) in each case.

As for `CC(CCc1ccc2c(c1)c(N)c1ccc(N)cc1[n+]2[O-])CC(C)(C)C` (stereo not given), the GI50 in the assay on SN12C was 1.79 µM (inactive); in the assay with RPMI-8226, 1.92 µM (inactive); in the assay on HCT-15, 4.26 µM; with SR, 1.62 µM (inactive); with HCT-116, 1.93 µM (inactive); in the assay on UACC-257, 1.99 µM (inactive). Further, the GI50 in the assay on OVCAR-4 was 2.05 µM (inactive); with UO-31, 8.95 µM (inactive); with M14 it was 1.75 µM (inactive); in the assay on SF-268, 2.2 µM (inactive); in the assay on IGROV-1, 1.49 µM (inactive); in the assay with OVCAR-8 it was 1.72 µM (inactive). For the same compound, the GI50 in the assay with SK-MEL-28 was 2.06 µM (inactive); with HOP-62, 1.83 µM (inactive).

With `CN(CC1NCCCC1O)C12CC3CC(CC(C3)C1)C2` (stereo not given), the GI50 is > 100 µM (inactive) in the assay with HOP-92; > 100 µM (inactive) in the assay on SN12C; > 100 µM (inactive) in the assay on RPMI-8226; over 100 µM with HCT-15; > 100 µM (inactive) with UACC-257; > 100 µM (inactive) with OVCAR-4. Besides, the GI50 in the assay with UO-31, in the assay with M14, in the assay with SF-268, in the assay with IGROV-1, in the assay on OVCAR-8 and with HOP-62 was > 100 µM (inactive) in each case.

With `CC1=C(C(=O)Nc2ccccc2)C(c2ccc(C(C)C)cc2)C(C(=O)Nc2ccccc2)=C(C)N1`, the GI50 with HOP-92 was 14.2 µM (inactive); with SN12C, 13.6 µM (inactive); in the assay on RPMI-8226, 6.71 µM (inactive); in the assay with HCT-15, 14.8 µM; with SR, 10.6 µM (inactive); with HCT-116, 12.7 µM (inactive). The GI50 in the assay on OVCAR-4 is 28.5 µM (inactive); in the assay with UO-31 it was 12.5 µM (inactive); in the assay with M14, 18.2 µM (inactive); in the assay with SF-268 it was 22.3 µM (inactive); in the assay with IGROV-1, 23.2 µM (inactive); in the assay on OVCAR-8, 22.3 µM (inactive). Also, the values for the GI50 in the assay with SK-MEL-28 and with HOP-62 were 22.3 µM (inactive) and 25.3 µM (inactive), respectively.

For `C=C1C(=O)OC2/C=C(\C)C(OC(C)=O)C3OC3C(C)(O)CC(OC(=O)/C(C)=C/C)C12` (stereo not given), the GI50 in the assay with HOP-92 was 5.52 µM (inactive); in the assay with SN12C, 20 µM (inactive); in the assay on RPMI-8226, 4.91 µM (inactive); in the assay on HCT-15 it was 12.8 µM; with SR, 2.96 µM (inactive); in the assay with HCT-116 it was 2.16 µM (inactive). Further, the GI50 with UACC-257 was 14.7 µM (inactive); in the assay on OVCAR-4 it was 33.8 µM (inactive); with UO-31, 11 µM (inactive); in the assay on M14, 4.65 µM (inactive); with SF-268 it was 10.9 µM (inactive); in the assay with IGROV-1 it was 16.9 µM (inactive). Besides, the GI50 with OVCAR-8 was 9.93 µM (inactive); with SK-MEL-28 it was 4.95 µM (inactive); in the assay with HOP-62, 19.1 µM (inactive).

With `CCOC(=O)/C(O)=C(/c1n[nH]c(=O)c2ccccc12)[N+](=O)[O-]`, the GI50 in the assay with HOP-92 is > 100 µM (inactive); in the assay on SN12C it was > 100 µM (inactive); in the assay with RPMI-8226, > 100 µM (inactive); with HCT-15, over 100 µM; in the assay on HCT-116, > 100 µM (inactive); in the assay on UACC-257, > 100 µM (inactive). In addition, the GI50 in the assay with OVCAR-4, in the assay on UO-31, in the assay on M14, in the assay with SF-268, in the assay on IGROV-1 and in the assay with OVCAR-8 was > 100 µM (inactive) each time. In addition, the GI50 with SK-MEL-28 and in the assay with HOP-62 was > 100 µM (inactive) throughout.

Turning to `Cc1c2n(c(=O)[nH]c1=O)C1OC(CO)C(N=[N+]=[N-])C1O2` (stereo not given), the GI50 in the assay with HOP-92 is 49.5 µM (inactive); in the assay on SN12C, > 100 µM (inactive); in the assay with RPMI-8226, > 100 µM (inactive); in the assay on HCT-15, over 100 µM; in the assay on SR, > 100 µM (inactive); in the assay on HCT-116, > 100 µM (inactive). Moreover, the GI50 in the assay on UACC-257, in the assay on OVCAR-4, in the assay on UO-31, in the assay with SF-268, with IGROV-1 and in the assay with OVCAR-8 was > 100 µM (inactive) throughout. For the same compound, the GI50 with SK-MEL-28 and in the assay with HOP-62 was > 100 µM (inactive) each time.

On to `C[C@]12CC[C@H](O)CC1CCC[C@@H]2O` (stereo not given in full), for which the GI50 is > 100 µM (inactive) in the assay on HOP-92; > 100 µM (inactive) in the assay on SN12C; > 100 µM (inactive) in the assay with RPMI-8226; over 100 µM in the assay on HCT-15; > 100 µM (inactive) in the assay with HCT-116; > 100 µM (inactive) in the assay with UACC-257. The GI50 with OVCAR-4, with UO-31, in the assay on M14, in the assay with SF-268, in the assay on IGROV-1 and in the assay on OVCAR-8 was > 100 µM (inactive) each time. Further, the GI50 in the assay on SK-MEL-28 and in the assay on HOP-62 was > 100 µM (inactive) each time.

On to `CCO/C=C1\N=C(c2ccc(Cl)c(Cl)c2)OC1=O`, for which the GI50 in the assay on HOP-92 was > 100 µM (inactive); in the assay with SN12C it was > 100 µM (inactive); in the assay on RPMI-8226, > 100 µM (inactive); in the assay with HCT-15, over 100 µM; in the assay with UACC-257, > 100 µM (inactive); in the assay on OVCAR-4, > 100 µM (inactive). Moreover, the GI50 with UO-31 was 36.6 µM (inactive); in the assay with M14, > 100 µM (inactive); in the assay on SF-268 it was > 100 µM (inactive); in the assay on IGROV-1, > 100 µM (inactive); in the assay on OVCAR-8 it was > 100 µM (inactive); with SK-MEL-28, > 100 µM (inactive). Also, the GI50 with HOP-62 is 50 µM (inactive).

As for `O=c1c2ccccc2c2nc3ccccc3nc2n1C1CCCCC1`, the GI50 in the assay with SN12C was > 100 µM (inactive); with RPMI-8226 it was > 100 µM (inactive); in the assay on HCT-15, over 100 µM; in the assay on SR, > 100 µM (inactive); in the assay with HCT-116, > 100 µM (inactive); in the assay on UACC-257 it was > 100 µM (inactive). Besides, the GI50 was 32.9 µM (inactive) in the assay on OVCAR-4; > 100 µM (inactive) in the assay on UO-31; > 100 µM (inactive) with SF-268; > 100 µM (inactive) with IGROV-1; 86.3 µM (inactive) in the assay with OVCAR-8; > 100 µM (inactive) in the assay with SK-MEL-28.

As to `COC(=O)C1=C(C(=O)OC)C2(c3ccccc3)OC1(c1ccccc1)c1cc3ccccc3cc12`, the GI50 in the assay with HOP-92 was 1.09 µM (active); with SN12C, 1.9 µM (inactive); with RPMI-8226, 0.764 µM (active); in the assay with HCT-15, 1.82 µM; in the assay on OVCAR-4 it was 1.7 µM (inactive); in the assay with UO-31, 1.42 µM (inactive). In addition, the GI50 in the assay on M14 was 1.79 µM (inactive); with SF-268, 1.73 µM (inactive); in the assay on IGROV-1, 1.9 µM (inactive); with OVCAR-8, 1.56 µM (inactive); in the assay with SK-MEL-28, 1.87 µM (inactive); in the assay on HOP-62, 13.3 µM (inactive).

On to `CC(=O)O[C@H]1C(=O)[C@@]2(C)C([C@H](OC(=O)c3ccccc3)[C@]3(O)C[C@H](OC(=O)[C@H](O)[C@H](NC(=O)c4ccccc4)c4ccc(Cl)cc4)C(C)=C1C3(C)C)C1(OC(C)=O)CO[C@@H]1C[C@@H]2O` (stereo not given in full), for which the GI50 is 0.000841 µM (active) with SN12C; 0.000157 µM (active) with RPMI-8226; 0.516 µM in the assay with HCT-15; 0.000119 µM (active) with SR; 0.000113 µM (active) with HCT-116; 0.00425 µM (active) with UACC-257. Besides, the GI50 is 0.889 µM (active) in the assay on OVCAR-4; 0.733 µM (active) with UO-31; 0.00224 µM (active) in the assay on M14; 0.00156 µM (active) with SF-268; 0.000136 µM (active) in the assay with IGROV-1; 0.00115 µM (active) in the assay on OVCAR-8. In addition, the GI50 with SK-MEL-28 is 0.00157 µM (active); in the assay on HOP-62 it was 0.00839 µM (active).

On to `c1ccc(C(c2ccccc2)c2ccccn2)cc1`, for which the GI50 is > 100 µM (inactive) in the assay on SN12C; 66.1 µM (inactive) in the assay with RPMI-8226; over 100 µM with HCT-15; > 100 µM (inactive) in the assay on HCT-116; > 100 µM (inactive) in the assay with UACC-257; > 100 µM (inactive) with OVCAR-4. Moreover, the GI50 in the assay on UO-31, in the assay on M14, with SF-268, with IGROV-1, with OVCAR-8 and in the assay on SK-MEL-28 was > 100 µM (inactive) in each case. Besides, the GI50 in the assay with HOP-62 was > 100 µM (inactive).

Source of the values: ChEMBL document CHEMBL1201862, “PubChem BioAssay data set” (2004).
